According to patent US20090202451A1, “ORAL CARE PRODUCT AND METHODS OF USE AND MANUFACTURE THEREOF” (COLGATE-PALMOLIVE COMPANY, priority 2008, published 2009):

System: S. sanguis
Assay: Ammonia production by S. sanguis at pH 4.0
Type: cell-based
Conditions: 5 millimolar amino acid, 0.1% sucrose, pH 4.0, 37° C., 30 minutes
Experimental: An overnight culture of S. sanguis was grown at 37° C. in trypticase soy broth (Becton Dickinson, Sparks, Md.). The culture was centrifuged at 5,000 rpm for 5 minutes at 1 milliliter at a time into preweighed tubes in order to accumulate approximately 5 milligrams of wet pellet weight. The pellet was then resuspended into 20 millimolar potassium phosphate buffer (J T Baker, Phillipsburg, N.J.), pH 4.0, to simulate a stressed environment for the bacterial cell where ammonia would be produced for survival. The final concentration was 5 milligram per milliliter. To this final concentration, a 5 millimolar final concentration of L-arginine. L-citrulline, or L-ornithine was added along with a 0.1% final concentration of sucrose (VWR, West Chester, Pa.). This mixture was then incubated at 37° C. in a shaking water bath for 30 minutes before ammonia production was determined.
In order to analyze for ammonia, an Ammonia Assay kit was used from Diagnostic Chemicals Limited (Oxford, Conn.). The intended use of this specific kit is for the in vitro quantification of ammonia in plasma, but the procedure was modified in order to determine and quantify the ammonia production in plaque and/or bacteria.

In the case of `N=C(N)NCCC[C@H](N)C(=O)O` [L-Arginine, L-arginine], the Ammonia (Trial 3) is reported as 2.20 ppm and the Ammonia (Trial 5) is reported as 0.5 ppm.
